For experiment [1], the target named is T1, recombinant human PARP (PARP1) (Homo sapiens, UniProt P09874).
T1 construct: Full length human PARP (PARP1) is assembled from PCR fragments; His6 tag with TEV site, from the pFastBac-HTb vector (own knowledge of the vector); made in house; host or cells: insect cells, baculovirus (Bac-to-Bac, Gibco-BRL)
Kind of experiment: PARP enzyme assay, Method A (radioactivity or 'ELISA' enzyme assay with partially purified enzyme). The conditions noted are these: recombinant human PARP preparation, radioactive or ELISA enzyme assay. It counts as biochemical. In short, it runs like this: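 Partially purified recombinant full-length His-tagged human PARP1, baculovirus-expressed. Radioactive format: 100 μg/mL sonicated DNA, 100 μg/mL histones, 100 mM Tris pH 8.0, 10 mM MgCl2, 200 μM labeled NAD, 10 min 37 °C or 60 min RT, TCA-precipitated counts. ELISA format: 250 μM NAD plus biotin-NAD on histone plates, TMB A450.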

Experiment [2] has as its system intracellular synthesis of poly(ADP-ribose) in HL60 cells. As to the kind of experiment: Cell-based PARP assay (poly(ADP-ribose) immunodetection in fixed cells). The conditions noted are these: Homo sapiens, HL-60, overnight incubation with compound, serum-free media. The method, then: The following example illustrates the efficacy of the compounds of this invention in inhibiting the effects of PARP in a cell based assay.
Reagents: Media RMPI 1640+Glutamax: Gibco 61870-044); TBST/milk, TBST (Sigma T93039) containing 5% skimmed milk (Nestle Carnation nonfat dry milk)
HL60 cells at […] in serum free media are seeded into the wells of a 96-well plate at 100 μL/well. The plate is pre-incubated for 3 hr under normal tissue culture conditions. One hundred μL of serum-free media containing compound at 2× the required concentration in 0.6% DMSO are added (or 0.6% DMSO only to controls and blanks). The plate is incubated overnight under normal tissue culture conditions, then centrifuged at 190×g for 5 min at 4° C. to pellet cells. The media is carefully removed by aspiration, and the cells are incubated in 100 μL/well ice-cold 0.56% KCl for 2 min on ice. The plate is centrifuged as above to pellet cells, the KCl removed by aspiration, and 100 μL/well ice-cold methanol added. After 4 min on ice, methanol is removed by aspiration and the cells air-dried for 10-15 min at rt. The cells are washed with PBS×3, then washed with TBST/milk (1 wash, 5 min incubation at rt). The cells are incubated with 100 μL/well 0.25% Triton X 100 in PBS for 10 min at RT, then washed x# with PBS and ×1 with TBST. The cells are blocked for 1 hr with TBST/milk (200 μL/well) and then washed ×1 with TBST. The fixed cells are incubated with primary antibody (Calbiochem cat no. 528815) at 1:2000 dilution in TBST/milk (100 μL/well, overnight at 4 deg C.). The cells are washed with TBST (2 rinses, 1×15 min, 2×5 min at RT). The cells are incubated with secondary antibody (anti-rabbit Ig-biotin conjugate, Amersham RPN1004) in TBST/milk at 1:3500 dilution, 100 μL/well for 1 hr at RT. The cells are washed with TBST (2 rinses, 1×15 min, 2×5 min at RT). The cells are then incubated with 100 μL/well of 4-MUP (Sigma, M3168) in the dark for 4 hrs. The fluorescence is read using a plate reader (excitation at 360 nm, emission at 440 nm). To calculate compound effects, the fluorescence of the blank (no cells) is subtracted from all data. Fluorescence obtained with a standard cell-permeable potent inhibitor at 30 μM is subtracted from all other groups as this appears to represent a true blank. Compound effects can then be determined: a PARP inhibitor blocks the intracellular synthesis of poly(ADP-ribose), and results in a decreased reactivity (reduced final fluorescence) with primary antibody in the fixed and permeabilized cells.
The results obtained from this study are expressed as EC50 (median effective concentration of the test compound that was effective in preventing the cell death—expressed in micromolar (μM) concentration) for each of the tested compounds and are summarized in Table 2.

Counter-ions that a name gives are not always drawn.

A word on the IC50: it is the concentration needed to halve the response being measured. One may read the EC50 as the concentration giving half of the maximal effect.

T1 sequence (P09874 whole entry, the tested form may be a part): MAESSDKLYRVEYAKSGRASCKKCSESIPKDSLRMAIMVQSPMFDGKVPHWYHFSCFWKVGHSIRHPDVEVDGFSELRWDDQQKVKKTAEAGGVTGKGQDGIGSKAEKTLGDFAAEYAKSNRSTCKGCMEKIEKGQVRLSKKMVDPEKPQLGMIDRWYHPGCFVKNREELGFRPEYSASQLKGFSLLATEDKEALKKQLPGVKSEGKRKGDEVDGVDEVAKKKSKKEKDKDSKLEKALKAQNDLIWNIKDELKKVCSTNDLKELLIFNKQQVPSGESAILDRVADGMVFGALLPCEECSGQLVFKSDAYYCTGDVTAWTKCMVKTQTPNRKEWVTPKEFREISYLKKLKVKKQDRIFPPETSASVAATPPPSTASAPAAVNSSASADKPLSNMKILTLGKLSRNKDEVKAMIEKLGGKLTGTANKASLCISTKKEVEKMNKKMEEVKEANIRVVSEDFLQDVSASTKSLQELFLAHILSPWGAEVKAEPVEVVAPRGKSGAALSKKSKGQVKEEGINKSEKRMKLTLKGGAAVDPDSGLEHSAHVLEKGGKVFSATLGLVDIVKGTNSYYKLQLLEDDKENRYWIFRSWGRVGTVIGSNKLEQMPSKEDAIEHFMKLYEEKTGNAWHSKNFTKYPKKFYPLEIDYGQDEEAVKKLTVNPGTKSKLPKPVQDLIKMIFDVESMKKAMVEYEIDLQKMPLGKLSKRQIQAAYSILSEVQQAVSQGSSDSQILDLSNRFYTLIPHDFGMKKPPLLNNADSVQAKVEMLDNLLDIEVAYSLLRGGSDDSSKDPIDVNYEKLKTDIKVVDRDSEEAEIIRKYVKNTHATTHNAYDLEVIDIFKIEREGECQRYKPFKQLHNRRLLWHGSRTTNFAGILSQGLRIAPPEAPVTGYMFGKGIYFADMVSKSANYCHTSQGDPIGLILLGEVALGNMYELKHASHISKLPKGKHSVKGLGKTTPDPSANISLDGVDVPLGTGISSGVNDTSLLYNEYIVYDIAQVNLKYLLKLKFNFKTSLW

`CCc1cc(-c2ccc(S(=O)(=O)NCc3nc4ccccc4[nH]3)s2)c(C)[nH]c1=O` [Example 118, 5-(5-Ethyl-2-methyl-6-oxo-1,6-dihydro-pyridin-3-yl)thiophene-2-sulfonic acid (1H-benzimidazol-2-ylmethyl)amide hydrochloride]: the IC50 in experiment [1] is 0.15 µM. Also, the EC50 in experiment [2] is 30000 nM.

`CCc1cc(-c2ccc(CNCC3CCCCC3)s2)c(C)[nH]c1=O` [Example 143, 5-(5-Cyclohexylmethylaminomethylthiophen-2-yl)-3-ethyl-6-methyl-1H-pyridin-2-one hydrochloride]: the IC50 in experiment [1] came to 0.39 µM. The EC50 in experiment [2] turned out to be 1430 nM.

As for `CCc1cc(-c2ccc(CN3CCCC(O)C3)s2)c(C)[nH]c1=O` (centres unmarked) [Example 126, 3-Ethyl-5-[5-(3-hydroxypiperidin-1-ylmethyl)thiophen-2-yl]-6-methyl-1H-pyridin-2-one hydrochloride], in experiment [1], the IC50 was determined as 0.43 µM. Besides, the EC50 in experiment [2] amounted to 30800 nM.

As to `CCc1cc(-c2ccc(S(=O)(=O)NCc3cccnc3)s2)c(C)[nH]c1=O` [Example 101, 5-(5-Ethyl-2-methyl-6-oxo-1,6-dihydropyridin-3-yl)-thiophene-2-sulfonic acid (pyridin-3-ylmethyl)amide hydrochloride], in experiment [1], the IC50 came to 0.17 µM. Besides, in experiment [2], the EC50 was 50 nM.

Consider `CCc1cc(-c2ccc(S(=O)(=O)NCc3ccncc3)s2)c(C)[nH]c1=O` [Example 110, 5-(5-ethyl-2-methyl-6-oxo-1,6-dihydropyridin-3-yl)thiophene-2-sulfonic acid (pyridin-4-ylmethyl)amide hydrochloride], for which the IC50 in experiment [1] came to 0.08 µM. The EC50 in experiment [2] stood at 20 nM.

As to `CCc1cc(-c2ccc(S(=O)(=O)N3CCN(c4ccc(F)cc4)CC3)s2)c(C)[nH]c1=O` [Example 25, 3-Ethyl-5-{5-[4-(4-fluorophenyl)piperazine-1-sulfonyl]thiophen-2-yl}-6-methyl-1H-pyridin-2-one], the IC50 in experiment [1] worked out at 0.76 µM. Further, the concentration for a half-maximal effect (EC50) in experiment [2] turned out to be 4880 nM.

Consider `CCc1cc(-c2ccc(S(=O)(=O)NC3CCN(Cc4ccccc4)CC3)s2)c(C)[nH]c1=O` [Example 39, 5-(5-Ethyl-2-methyl-6-oxo-1,6-dihydropyridin-3-yl)thiophene-2-sulfonic acid (1-benzylpiperidin-4-yl)amide hydrochloride], for which the IC50 in experiment [1] turned out to be 0.07 µM. The EC50 in experiment [2] came to 500 nM.

In the case of `CCc1cc(-c2ccc(CNCCOc3ccccc3)s2)c(C)[nH]c1=O` [Example 146, 3-Ethyl-6-methyl-5-{5-[(2-phenoxyethylamino)-methyl]thiophen-2-yl}-1H-pyridin-2-one hydrochloride], the IC50 in experiment [1] was 0.24 µM. In experiment [2], the 50% effective concentration (EC50) was determined as 970 nM.

Turning to `CCc1cc(-c2ccc(CNC(C)c3ccccc3)s2)c(C)[nH]c1=O` (centres unmarked) [Example 135, 3-Ethyl-6-methyl-5-{5-[(1-phenyl-ethylamino)-methyl]thiophen-2-yl}-1H-pyridin-2-one hydrochloride], the 50% inhibitory concentration (IC50) in experiment [1] was determined as 0.35 µM. Moreover, in experiment [2], the EC50 amounted to 12200 nM.

Regarding `CCc1cc(-c2ccc(CNC(C)CCc3ccccc3)s2)c(C)[nH]c1=O` (centres unmarked) [Example 136, 3-Ethyl-6-methyl-5-{5-[(1-methyl-3-phenyl-propylamino)-methyl]thiophen-2-yl}-1H-pyridin-2-one hydrochloride], the IC50 in experiment [1] worked out at 0.46 µM. In addition, the EC50 in experiment [2] turned out to be 14700 nM.

Regarding `CCc1cc(-c2ccc(S(=O)(=O)NCCN3CCCC3)s2)c(C)[nH]c1=O` [Example 95, 5-(5-Ethyl-2-methyl-6-oxo-1,6-dihydropyridin-3-yl)thiophene-2-sulfonic acid (2-pyrrolidin-1-yl)ethylamide hydrochloride], in experiment [1], the IC50 is 0.2 µM. Moreover, the EC50 in experiment [2] was 220 nM.

Regarding `CCc1cc(-c2ccc(S(=O)(=O)N3CCCC(Cn4ccnc4)C3)s2)c(C)[nH]c1=O` (centres unmarked) [Example 70, 3-Ethyl-5-{5-[(3-imidazo-1-yl)methylpiperidine-1-sulfonyl]thiophene-2-yl}-6-methyl-1H-pyridin-2-one hydrochloride], the IC50 in experiment [1] came out at 0.26 µM. Moreover, the EC50 in experiment [2] amounted to 260 nM.

On to `CCc1cc(-c2ccc(S(=O)(=O)N3CCC(O)C3)s2)c(C)[nH]c1=O` (centres unmarked) [Example 85, 3-Ethyl-5-[5-(3-hydroxypyrrolidine-1-sulfonyl)thiophen-2-yl]-6-methyl-1H-pyridin-2-one], for which the IC50 in experiment [1] amounted to 0.31 µM. Besides, the EC50 in experiment [2] is 330 nM.

`CCc1cc(-c2ccc(S(=O)(=O)N3CCC(N4CCCCC4)CC3)s2)c(C)[nH]c1=O` [Example 67, 3-Ethyl-6-methyl-5-{5-[(4-piperidin-1-yl)piperidine-1-sulfonyl]thiophen-2-yl}-1H-pyridin-2-one hydrochloride]: the IC50 in experiment [1] was determined as 0.3 µM. In addition, the EC50 in experiment [2] was 3110 nM.

In the case of `Cc1[nH]c(=O)c2c(c1-c1cccc(C#N)c1)CCCC2` [Example 5, 3-(3-Methyl-1-oxo-1,2,5,6,7,8-hexahydroisoquinolin-4-yl)benzonitrile], in experiment [1], the IC50 is 0.2 µM. The EC50 in experiment [2] was 500 nM.

For `CCc1cc(-c2ccc(S(=O)(=O)NCc3cc(F)cc(F)c3)s2)c(C)[nH]c1=O` [Example 27, 5-(5-Ethyl-2-methyl-6-oxo-1,6-dihydropyridin-3-yl)thiophene-2-sulfonic acid 3,5-difluorobenzylamide], the half-maximal inhibitory concentration (IC50) in experiment [1] was 0.1 µM. The EC50 in experiment [2] amounted to 14200 nM.

In the case of `CCc1cc(-c2ccc(S(=O)(=O)NCc3ccc(C(F)(F)F)cc3)s2)c(C)[nH]c1=O` [Example 26, 5-(5-Ethyl-2-methyl-6-oxo-1,6-dihydropyridin-3-yl)thiophene-2-sulfonic acid 4-trifluoromethylbenzylamide], the half-maximal inhibitory concentration (IC50) in experiment [1] was found to be 0.19 µM. Further, the EC50 in experiment [2] was found to be 2940 nM.

Consider `CCc1cc(-c2ccc(S(=O)(=O)NCCc3ccncc3)s2)c(C)[nH]c1=O` [Example 109, 5-(5-Ethyl-2-methyl-6-oxo-1,6-dihydropyridin-3-yl)thiophene-2-sulfonic acid (2-pyridin-4-yl-ethyl)amide hydrochloride], for which the IC50 in experiment [1] came out at 0.1 µM. For the same molecule, in experiment [2], the EC50 is 240 nM.

Turning to `CCc1cc(-c2ccc(S(=O)(=O)NCCNC(C)=O)s2)c(C)[nH]c1=O` [Example 119, N-{2-[5-(5-Ethyl-2-methyl-6-oxo-1,6-dihydropyridin-3-yl)thiophene-2-sulfonylamino]ethyl}acetamide], in experiment [1], the IC50 came out at 0.38 µM. Further, the EC50 in experiment [2] was 800 nM.

`CCc1cc(-c2ccc(S(=O)(=O)NCCc3cccnc3)s2)c(C)[nH]c1=O` [Example 107, 5-(5-Ethyl-2-methyl-6-oxo-1,6-dihydropyridin-3-yl)thiophene-2-sulfonic acid (2-pyridin-3-yl-ethyl)amide hydrochloride]: in experiment [1], the 50% inhibitory concentration (IC50) worked out at 0.08 µM. Also, in experiment [2], the EC50 is 30 nM.

In the case of `CCc1cc(-c2noc(C)n2)c(C)[nH]c1=O` [Example 22, 3-Ethyl-6-methyl-5-(5-methyl-1,2,4-oxadiazol-3-yl)-1H-pyridin-2-one], in experiment [1], the IC50 worked out at 0.31 µM. Also, in experiment [2], the EC50 is 120 nM.

On to `CCc1cc(-c2ccc(CN3CCCCC3)s2)c(C)[nH]c1=O` [Example 148, 3-ethyl-6-methyl-5-(5-piperidin-1-ylmethy-thiophen-2-yl)-1H-pyridin-2-one hydrochloride], for which the IC50 in experiment [1] was 0.41 µM. The EC50 in experiment [2] stood at 520 nM.

The record behind these values is patent publication US8173682B2, “Substituted pyridones as inhibitors of poly(ADP-ribose) polymerase (PARP)” (Aventis Pharmaceuticals Inc., priority 2004, dated 2012).
